Laboratory results from patent US7105550B2, “2,4-disubstituted thiazolyl derivatives” (priority 2000, dated 2006).

Experiments:
IL-12 production = test: In vitro inhibition of IL-12 production in human blood; type: cell-based; settings: human whole blood, lipopolysaccharide 100 ng/ml, 24 hours
Protocol: (§1) Human Whole Blood Stimulation
(§2) Peripheral blood from healthy male donors was drawn into heparinized syringes (12.5 U heparin/ml). Blood samples were three-fold diluted in RMPI 1640 medium (Life Technologies, Belgium) supplemented with 2 mM L-glutamine, 100 U/ml penicillin and 100 μg/ml streptomycin, and 300 μl fractions were distributed in 24-well multidisc plates (Nunc, Roskilde, Denmark). Blood samples were preincubated (60 minutes at 37° C.) in a humidified 6% CO2-atmosphere with 100 μl of drug solvent (final concentration 0.02% dimethylsulfoxide in RPMI 1640) or with 100 μl of an appropriate dose of test compound before being stimulated by the addition of 100 μl of lipopolysaccharide at a final concentration of 100 ng/ml. After 24 hours, cell-free supernatant fluids were collected by centrifugation and stored at −20° C. until tested for the presence of IL-12.
(§3) Cytokine protein concentrations were determined by sandwich ELISA as described in Van Wauwe et al. (1996, Inflamm Res, 45, 357–363). Murine monoclonals used as capture antibodies to human cytokines were obtained from R&D Systems (Abingdon, United Kingdom) and code named MAB210 and MAB611 for TNF-α and IL-12 respectively. Butinylated goat polyclonal antibodies used to detect human cytokines were from R&D Systems (BAF210, BAF219). Cytokine levels were calculated from standard curves using recombinant cytokines supplied by R&D Systems.

TNF-α production = test: In vitro inhibition of TNF-α production in human blood; type: cell-based; settings: human whole blood, lipopolysaccharide stimulation
Protocol: as §1
as §2, with “with 100 A1 of drug” for “with 100 μl of drug”, “ng/ml. After 6 hours, cell-free” for “ng/ml. After 24 hours, cell-free”, “presence of TNF-α.” for “presence of IL-12.”
as §3

SMILES	% inhib. IL-12 (p40) (IL-12 production; test dose 1 × 10^−6 M) [%]	% inhib. IL-12 (p40) (IL-12 production; test dose 1 × 10^−7 M) [%]	% inhib. TNF-α (TNF-α production; test dose 1 × 10^−6 M) [%]	% inhib. TNF-α (TNF-α production; test dose 1 × 10^−7 M) [%]
Cl.FC(F)(F)c1cccc(Nc2nc(-c3ccoc3)cs2)c1 [compound 518]	62	59	38	44
Brc1cccc(Nc2nc(-c3cnc4ccccn34)cs2)c1 [Compound 466]	95	86	57	49
Cc1ccc(Nc2nc(-c3cnc4ccccn34)cs2)cn1.Cl.Cl.O.O [compound 577]	77	71	50	49
Cl.FC(F)(F)c1cccc(Nc2nc(-c3cnc4sccn34)cs2)c1 [compound 549]	74	71	50	47
Cc1cccc(Nc2nc(-c3cnc4ccccn34)cs2)c1.Cl [Compound 31]	66	68	55	49
Br.Cc1ncc(-c2csc(Nc3ccc(Cl)nc3)n2)n1C [Compound 527]	61	66	37	43
FC(F)(F)c1cccc(Nc2nc(-c3cncnc3)cs2)c1 [compound 517]	74	68	61	57
Cc1ccc(Nc2nc(-c3cnc4ccccn34)cs2)cc1Cl.Cl [Compound 476]	75	71	58	53
Cc1ccc(Nc2nc(-c3cnc4ccccn34)cs2)cc1.Cl [Compound 39]	64	71	53	59
Cl.FC(F)(F)c1cncc(Nc2nc(-c3cnc4ccccn34)cs2)c1 [compound 584]	75	68	53	49
Cl.c1ccn2c(-c3csc(Nc4ccc5c(c4)CCO5)n3)cnc2c1 [compound 579]	72	75	49	50
Br.FC(F)(F)c1cccc(Nc2nc(-c3cccnc3)cs2)c1 [compound 101]	62	65	54	53
Cl.Clc1cccc(Nc2nc(-c3cnc4ccccn34)cs2)c1Cl.O [Compound 45]	64	65	49	48
Br.COc1ccc(Nc2nc(-c3cnc4ccccn34)cs2)cc1 [Compound 74]	70	67	56	48
Cl.c1ccn2c(-c3csc(Nc4ccc5ncsc5c4)n3)cnc2c1 [compound 587]	79	75	56	56
Br.Cc1cccc(Nc2nc(-c3cnc4cnccn34)cs2)c1.O [compound 115]	75	67	58	53
Cl.Clc1cccc(Nc2nc(-c3cnc4sccn34)cs2)c1Cl [compound 551]	71	71	44	40
Cl.Cl.Clc1cccc(Nc2nc(-c3c[nH]c4ncccc34)cs2)c1Cl [Compound 166]	62	55	48	37
Br.Cc1cccc(Nc2nc(-c3cnn4ccccc34)cs2)c1 [compound 119]	62	62	49	49
Brc1ccc(Nc2nc(-c3cnc4ccccn34)cs2)cc1.Cl [Compound 509]	64	68	46	54
Br.Cc1ccc(Nc2nc(-c3cnc4ncccn34)cs2)cc1Cl [compound 286]	60	63	50	48
COc1ccc(Nc2nc(-c3cnc4ccccn34)cs2)cn1 [compound 573]	67	61	53	45
Br.FC(F)(F)c1cccc(Nc2nc(-c3cnc4ccccc4c3)cs2)c1.O [compound 100]	53	51	43	41
Cl.Fc1cccc(-c2csc(Nc3cccc(C(F)(F)F)c3)n2)c1 [Compound 643]	75	72	64	59
Br.FC(F)(F)c1cccc(Nc2nc(-c3cnc4ccccn34)cs2)c1 [Compound 81]	65	67	51	47
Cl.c1ccc(Nc2nc(-c3c[nH]c4ccccc34)cs2)cc1 [Compound 9]	49	53	37	39
Cl.Clc1cccc(Nc2nc(-c3ncc4ccccn34)cs2)c1Cl [compound 410]	53	58	39	43
